Data on 15 molecules can be found in ChEMBL document CHEMBL1134915, “Acyl dipeptides as reversible caspase inhibitors. Part 2: further optimization” (Bioorg Med Chem Lett, 2002).

Experiment [1] concerns the target T1, Caspase-7 (Homo sapiens, UniProt P55210).
T1 sequence (P55210 whole entry): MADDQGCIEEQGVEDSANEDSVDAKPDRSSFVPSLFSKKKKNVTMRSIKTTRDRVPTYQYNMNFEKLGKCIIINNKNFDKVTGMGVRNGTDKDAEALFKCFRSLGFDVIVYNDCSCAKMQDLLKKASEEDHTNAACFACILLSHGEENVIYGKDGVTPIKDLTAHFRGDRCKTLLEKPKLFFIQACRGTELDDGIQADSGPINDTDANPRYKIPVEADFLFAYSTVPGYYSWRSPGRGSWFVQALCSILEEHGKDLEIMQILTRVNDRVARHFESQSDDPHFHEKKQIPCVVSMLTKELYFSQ
Briefly: Inhibition of Caspase-7 enzyme.

Experiment [2] concerns the target T2, Caspase-1 (Homo sapiens, UniProt P29466).
T2 sequence (P29466 whole entry): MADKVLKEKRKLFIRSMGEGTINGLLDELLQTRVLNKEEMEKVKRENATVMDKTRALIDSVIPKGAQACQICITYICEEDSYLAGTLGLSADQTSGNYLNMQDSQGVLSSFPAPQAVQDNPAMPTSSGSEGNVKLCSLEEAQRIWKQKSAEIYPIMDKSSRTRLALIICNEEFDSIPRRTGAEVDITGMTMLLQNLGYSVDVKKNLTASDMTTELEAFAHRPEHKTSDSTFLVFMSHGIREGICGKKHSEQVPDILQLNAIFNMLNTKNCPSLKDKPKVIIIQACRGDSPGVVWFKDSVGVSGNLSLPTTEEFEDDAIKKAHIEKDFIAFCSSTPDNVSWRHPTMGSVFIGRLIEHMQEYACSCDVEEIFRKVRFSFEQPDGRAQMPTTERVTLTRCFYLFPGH
Briefly: Inhibition of Caspase-1 enzyme.

Experiment [3] deals with T3, Caspase-6 (Homo sapiens, UniProt P55212).
T3 sequence (P55212 whole entry): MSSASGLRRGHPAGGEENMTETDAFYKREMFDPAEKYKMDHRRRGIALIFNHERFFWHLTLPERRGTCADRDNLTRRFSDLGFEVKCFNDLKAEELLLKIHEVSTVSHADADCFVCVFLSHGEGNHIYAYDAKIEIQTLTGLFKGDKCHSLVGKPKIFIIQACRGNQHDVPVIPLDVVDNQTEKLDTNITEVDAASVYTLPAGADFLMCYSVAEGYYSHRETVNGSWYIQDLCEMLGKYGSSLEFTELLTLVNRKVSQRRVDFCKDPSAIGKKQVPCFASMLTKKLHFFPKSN
The experiment can be described thus: Inhibition of Caspase-6.

Experiment [4] concerns the target T4, Caspase-3 (Homo sapiens, UniProt P42574).
T4 sequence (P42574 whole entry): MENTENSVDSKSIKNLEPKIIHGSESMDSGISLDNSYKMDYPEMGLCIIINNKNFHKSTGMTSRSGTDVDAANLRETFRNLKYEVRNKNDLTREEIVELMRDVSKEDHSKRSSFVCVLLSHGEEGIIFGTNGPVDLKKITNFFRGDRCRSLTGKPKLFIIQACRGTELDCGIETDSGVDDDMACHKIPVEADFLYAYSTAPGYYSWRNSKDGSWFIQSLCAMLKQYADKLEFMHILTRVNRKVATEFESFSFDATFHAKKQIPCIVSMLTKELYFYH
Briefly: Inhibition of Caspase-3.

For experiment [5], the target named is T5, Caspase-8 (Homo sapiens, UniProt Q14790). The experiment can be described thus: Inhibition of Caspase-8 enzyme.
For experiment [6], the target named is T2, Caspase-1. Briefly: Inhibitory concentration of compound required against Caspase-1 enzyme compared to acylated dipeptides.
Experiment [7] addresses T5, Caspase-8. Briefly: Inhibitory concentration of compound required against Caspase-8 enzyme compared to acylated dipeptides.
The target of experiment [8] is T1, Caspase-7. The experiment can be described thus: Inhibitory concentration of compound required against Caspase-7 enzyme compared to acylated dipeptides.
Experiment [9] deals with T4, Caspase-3. The experiment can be described thus: Inhibitory concentration of compound required against Caspase-3 enzyme compared to acylated dipeptides.
Experiment [10] deals with T3, Caspase-6. Briefly: Inhibitory concentration of compound required against Caspase-6 enzyme compared to acylated dipeptides.

SMILES strings stand for the structures.

T5 sequence (Q14790 217-374 limits assumed): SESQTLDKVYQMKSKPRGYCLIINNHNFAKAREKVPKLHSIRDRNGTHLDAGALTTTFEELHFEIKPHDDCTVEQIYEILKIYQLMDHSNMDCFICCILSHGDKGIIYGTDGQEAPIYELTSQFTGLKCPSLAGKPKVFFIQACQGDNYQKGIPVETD
T5 sequence (Q14790 385-479 limits assumed): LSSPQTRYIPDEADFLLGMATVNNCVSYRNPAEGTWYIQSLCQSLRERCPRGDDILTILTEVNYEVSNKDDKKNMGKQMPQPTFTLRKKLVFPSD

On to `CC(C)C(NC(=O)COc1cccc2c(NS(=O)(=O)C(F)(F)F)cccc12)C(=O)N[C@H]1CC(=O)OC1O` (some centres not stated), for which the IC50 (in general, the point on the concentration scale where inhibition reaches its midpoint) on Caspase-7 [1] was found to be 11 µM; at Caspase-1 [2], 127 nM; against Caspase-6 [3] it was 1010 nM; against Caspase-3 [4], 207 nM; at Caspase-8 [5] it was 615 nM.
The like results for `CC(C)C(NC(=O)COc1cc2ccccc2cc1NS(=O)(=O)C(F)(F)F)C(=O)N[C@H]1CC(=O)OC1O` (some centres not stated) were, in that order, 43.7 µM, 2180 nM, 3030 nM, 1920 nM and 1420 nM.
Take `CC(C)CC(NC(=O)[C@@H](CCC(=O)O)Oc1cccc2ccccc12)C(=O)N[C@H]1CC(=O)OC1O` (some centres not stated): the IC50 turned out to be 0.587 µM against Caspase-7 [1], 15 nM against Caspase-6 [3], 21 nM against Caspase-3 [4] and 12 nM at Caspase-8 [5].
Consider `CC(C)C(NC(=O)COc1c(C(=O)O)ccc2ccccc12)C(=O)N[C@H]1CC(=O)OC1O` (some centres not stated), for which the 50% inhibitory concentration (IC50) was determined as 1.65 µM against Caspase-7 [1]; 385 nM on Caspase-1 [2]; 1430 nM at Caspase-6 [3]; 54 nM against Caspase-3 [4]; 48 nM at Caspase-8 [5].
Regarding `CC(C)CC(NC(=O)CNc1cccc(Oc2ccccc2)c1)C(=O)N[C@H]1CC(=O)OC1O` (some centres not stated), the IC50 on Caspase-7 [1] is 2.67 µM; on Caspase-1 [2], 330 nM; against Caspase-6 [3], 308 nM; on Caspase-3 [4] it was 230 nM; against Caspase-8 [5], 670 nM.
On to `CC(C)CC(NC(=O)[C@H](CCC(=O)O)Oc1cccc2ccccc12)C(=O)N[C@H]1CC(=O)OC1O` (some centres not stated), for which the IC50 stood at 0.13 µM at Caspase-7 [1], 3.5 nM on Caspase-6 [3], 3.8 nM on Caspase-3 [4] and 31 nM against Caspase-8 [5].
For `CC(C)CC(NC(=O)CNCC(Cc1ccccc1)c1ccccc1)C(=O)N[C@H]1CC(=O)OC1O` (some centres not stated), the half-inhibitory concentration (IC50) is 2.92 µM against Caspase-7 [1]; 790 nM on Caspase-1 [2]; 589 nM against Caspase-6 [3]; 320 nM at Caspase-3 [4]; 990 nM against Caspase-8 [5].
In the case of `CC(C)C[C@H](NC(=O)C(C)Nc1cccc2ccccc12)C(=O)N[C@H]1CC(=O)OC1O` (some centres not stated), the IC50 came to 7.24 µM on Caspase-7 [1], 310 nM on Caspase-6 [3], 512 nM on Caspase-3 [4] and 17 nM at Caspase-8 [5].
For `CC(C)C(NC(=O)CCOc1cccc2ccccc12)C(=O)N[C@H]1CC(=O)OC1O` (some centres not stated), the IC50 against Caspase-7 [1] was found to be 37 µM; against Caspase-1 [2], 250 nM; at Caspase-6 [3], 4600 nM; at Caspase-3 [4] it was 4400 nM; on Caspase-8 [5], 19600 nM.
With `CC(C)CC(NC(=O)CNc1cccc2ccccc12)C(=O)N[C@H]1CC(=O)OC1O` (some centres not stated), the 50% inhibitory concentration (IC50) on Caspase-7 [1] was 1.32 µM; on Caspase-1 [2] it was 33 nM; against Caspase-6 [3] it was 37 nM; at Caspase-3 [4] it was 13 nM; against Caspase-8 [5] it was 7.6 nM.
Regarding `CC(C)C(NC(=O)CNc1cccc2ccccc12)C(=O)N[C@H]1CC(=O)OC1O` (some centres not stated), the concentration for half-maximal inhibition (IC50) against Caspase-7 [1] was 6.14 µM; against Caspase-1 [2], 15 nM; against Caspase-6 [3], 7000 nM; at Caspase-3 [4], 1550 nM; against Caspase-8 [5], 450 nM.
On to `CC(C)C(NC(=O)COc1cccc2ccccc12)C(=O)N[C@H]1CC(=O)OC1O` (some centres not stated), for which the 50% inhibitory concentration (IC50) against Caspase-7 [1] was 2.1 µM; against Caspase-1 [2], 336 nM; at Caspase-6 [3], greater than 10000 nM; on Caspase-3 [4], 355 nM; on Caspase-8 [5], 1200 nM.
Take `CC(C)C(NC(=O)COc1ccc2ccccc2c1C(=O)O)C(=O)N[C@H]1CC(=O)OC1O` (some centres not stated): the half-inhibitory concentration (IC50) against Caspase-7 [1] was determined as 10.9 µM; on Caspase-1 [2], 2960 nM; against Caspase-6 [3], 3610 nM; at Caspase-3 [4] it was 401 nM; against Caspase-8 [5], 733 nM.
Regarding `CC(C)C(NC(=O)COc1cc2ccccc2cc1C(=O)O)C(=O)N[C@H]1CC(=O)OC1O` (some centres not stated), the concentration for half-maximal inhibition (IC50) on Caspase-7 [1] was 17 µM; on Caspase-1 [2], 1890 nM; on Caspase-6 [3], 1900 nM; at Caspase-3 [4], 731 nM; at Caspase-8 [5], 200 nM.
In the case of `CC(=O)N[C@@H](CC(=O)O)C(=O)N[C@@H](CCC(=O)O)C(=O)N[C@H](C(=O)N[C@H]1CC(=O)OC1O)C(C)C` (some centres not stated), the concentration for half-maximal inhibition (IC50) was 50 nM against Caspase-1 [6]; 80 nM against Caspase-8 [7]; 10 nM against Caspase-7 [8]; 3.5 nM on Caspase-3 [9]; 10 nM against Caspase-6 [10].
